Square brackets hold non-standard residues; d marks the D form. Peptide text beside a SMILES is read from it. * marks the point of attachment. Dolaproine = CO[C@@H]([C@@H]1CCCN1)[C@@H](C)C(=O)O; Dil = CC[C@H](C)[C@H](NC)[C@@H](CC(=O)O)OC; X1 = C[C@@H](N*)[C@@H](O)c1ccccc1; NMeV = CN[C@H](C(=O)O)C(C)C
Assays:
[1] = test system: melanoma cell line A375; experiment: Cytotoxicity test of conjugate LDC10BR; type: cell-based; details: A375, incubated 15-30 min, then 2-3 days
[2] = test system: human nasopharyngeal cancer cell line KB; experiment: Cytotoxicity test of conjugate LDC10BR; type: cell-based; details: incubated 15-30 min, then 2-3 days

With `CC[C@H](C)[C@@H]([C@@H](CC(=O)N1CCC[C@H]1[C@H](OC)[C@@H](C)C(=O)N[C@H](C)[C@@H](O)c1ccccc1)OC)N(C)C(=O)[C@@H](NC(=O)[C@@H](NC)C(C)C)C(C)C` [MMAE] (H-[NMeV]V[Dil][Dolaproine]-X1) the IC50 [1] was 85 nM and the IC50 [2] was 20 nM.

Reference: patent US11571480B2, “Multi-ligand drug conjugates and uses thereof” (priority 2015, dated 2023)
